One block for each substance: values may come before it.
Legend:
macrophages = details: single low dose by intramuscular injection; cited from earlier work
[1] = Weekly hematology (CBC with differential); format: in vivo, Male Ross x Ross broiler chickens; on Red Blood Cells HCT: test concentration or dose not given here; on White Blood Cells BASO: test concentration or dose not given here; on White Blood Cells EOS: test concentration or dose not given here; on White Blood Cells LYMP + MONO: test concentration or dose not given here; on White Blood Cells NEUT: test concentration or dose not given here; on White Blood Cells WBC: test concentration or dose not given here

Substance: Acemannan [ACM 1]
activation of macrophages (macrophages): systemic immuno-modulated activation of macrophages

Others Het/Poly ([1]; Day 3, dose group 1): 19.75%
Red Blood Cells HCT ([1]; Day 3, dose group 1): 30.67%
White Blood Cells BASO ([1]; Day 3, dose group 1): 127.50 X/uL
White Blood Cells EOS ([1]; Day 3, dose group 1): 0.00 X/uL
White Blood Cells LYMP + MONO ([1]; Day 3, dose group 1): 2590.00 X/uL
White Blood Cells NEUT ([1]; Day 3, dose group 1): 782.50 X/uL
White Blood Cells WBC ([1]; Day 3, dose group 1): 3000 µL⁻¹
Others Het/Poly ([1]; Day 3, dose group 3): 31.67%
Red Blood Cells HCT ([1]; Day 3, dose group 3): 27.80%
White Blood Cells BASO ([1]; Day 3, dose group 3): 45.00 X/uL
White Blood Cells EOS ([1]; Day 3, dose group 3): 0.00 X/uL
White Blood Cells LYMP + MONO ([1]; Day 3, dose group 3): 2060.00 X/uL
White Blood Cells NEUT ([1]; Day 3, dose group 3): 1061.67 X/uL
White Blood Cells WBC ([1]; Day 3, dose group 3): 3170 µL⁻¹
Others Het/Poly ([1]; Day 3, dose group 20): 27.00%
Red Blood Cells HCT ([1]; Day 3, dose group 20): 27.00%
White Blood Cells BASO ([1]; Day 3, dose group 20): 16.00 X/uL
White Blood Cells EOS ([1]; Day 3, dose group 20): 16.00 X/uL
White Blood Cells LYMP + MONO ([1]; Day 3, dose group 20): 2950.00 X/uL
White Blood Cells NEUT ([1]; Day 3, dose group 20): 818.00 X/uL
White Blood Cells WBC ([1]; Day 3, dose group 20): 3800 µL⁻¹
Others Het/Poly ([1]; Day 7, dose group 1): 45.00%
White Blood Cells BASO ([1]; Day 7, dose group 1): 0.00 X/uL
White Blood Cells EOS ([1]; Day 7, dose group 1): 0.00 X/uL
White Blood Cells LYMP + MONO ([1]; Day 7, dose group 1): 5500.00 X/uL
White Blood Cells NEUT ([1]; Day 7, dose group 1): 4500.00 X/uL
White Blood Cells WBC ([1]; Day 7, dose group 1): 10000 µL⁻¹
Others Het/Poly ([1]; Day 7, dose group 3): 19.67%
White Blood Cells BASO ([1]; Day 7, dose group 3): 146.67 X/uL
White Blood Cells EOS ([1]; Day 7, dose group 3): 0.00 X/uL
White Blood Cells LYMP + MONO ([1]; Day 7, dose group 3): 5273.33 X/uL
White Blood Cells NEUT ([1]; Day 7, dose group 3): 1246.67 X/uL
White Blood Cells WBC ([1]; Day 7, dose group 3): 6670 µL⁻¹
Others Het/Poly ([1]; Day 7, dose group 20): 33.00%
White Blood Cells BASO ([1]; Day 7, dose group 20): 180.00 X/uL
White Blood Cells EOS ([1]; Day 7, dose group 20): 0.00 X/uL
White Blood Cells LYMP + MONO ([1]; Day 7, dose group 20): 4513.33 X/uL
White Blood Cells NEUT ([1]; Day 7, dose group 20): 2306.67 X/uL
White Blood Cells WBC ([1]; Day 7, dose group 20): 7000 µL⁻¹
Others Het/Poly ([1]; Day 15, dose group 1): 37.00%
Red Blood Cells HCT ([1]; Day 15, dose group 1): 32.00%
White Blood Cells BASO ([1]; Day 15, dose group 1): 266.67 X/uL
White Blood Cells EOS ([1]; Day 15, dose group 1): 0.00 X/uL
White Blood Cells LYMP + MONO ([1]; Day 15, dose group 1): 6963.33 X/uL
White Blood Cells NEUT ([1]; Day 15, dose group 1): 4436.67 X/uL
White Blood Cells WBC ([1]; Day 15, dose group 1): 11670 µL⁻¹
Others Het/Poly ([1]; Day 15, dose group 3): 30.67%
Red Blood Cells HCT ([1]; Day 15, dose group 3): 29.00%
White Blood Cells BASO ([1]; Day 15, dose group 3): 406.67 X/uL
White Blood Cells EOS ([1]; Day 15, dose group 3): 0.00 X/uL
White Blood Cells LYMP + MONO ([1]; Day 15, dose group 3): 8000.00 X/uL
White Blood Cells NEUT ([1]; Day 15, dose group 3): 3926.67 X/uL
White Blood Cells WBC ([1]; Day 15, dose group 3): 12330 µL⁻¹
Others Het/Poly ([1]; Day 15, dose group 20): 31.67%
Red Blood Cells HCT ([1]; Day 15, dose group 20): 24.33%
White Blood Cells BASO ([1]; Day 15, dose group 20): 180.00 X/uL
White Blood Cells EOS ([1]; Day 15, dose group 20): 0.00 X/uL
White Blood Cells LYMP + MONO ([1]; Day 15, dose group 20): 5213.33 X/uL
White Blood Cells NEUT ([1]; Day 15, dose group 20): 2606.67 X/uL
White Blood Cells WBC ([1]; Day 15, dose group 20): 8000 µL⁻¹
Others Het/Poly ([1]; Day 21, dose group 1): 28.33%
Red Blood Cells HCT ([1]; Day 21, dose group 1): 30.33%
White Blood Cells BASO ([1]; Day 21, dose group 1): 630.00 X/uL
White Blood Cells EOS ([1]; Day 21, dose group 1): 0.00 X/uL
White Blood Cells LYMP + MONO ([1]; Day 21, dose group 1): 7243.33 X/uL
White Blood Cells NEUT ([1]; Day 21, dose group 1): 3126.67 X/uL
White Blood Cells WBC ([1]; Day 21, dose group 1): 11000 µL⁻¹
Others Het/Poly ([1]; Day 21, dose group 3): 29.67%
Red Blood Cells HCT ([1]; Day 21, dose group 3): 31.00%
White Blood Cells BASO ([1]; Day 21, dose group 3): 523.33 X/uL
White Blood Cells EOS ([1]; Day 21, dose group 3): 0.00 X/uL
White Blood Cells LYMP + MONO ([1]; Day 21, dose group 3): 6016.67 X/uL
White Blood Cells NEUT ([1]; Day 21, dose group 3): 2793.33 X/uL
White Blood Cells WBC ([1]; Day 21, dose group 3): 9330 µL⁻¹
Others Het/Poly ([1]; Day 21, dose group 20): 35.50%
Red Blood Cells HCT ([1]; Day 21, dose group 20): 31.50%
White Blood Cells BASO ([1]; Day 21, dose group 20): 850.00 X/uL
White Blood Cells EOS ([1]; Day 21, dose group 20): 0.00 X/uL
White Blood Cells LYMP + MONO ([1]; Day 21, dose group 20): 6530.00 X/uL
White Blood Cells NEUT ([1]; Day 21, dose group 20): 4120.00 X/uL
White Blood Cells WBC ([1]; Day 21, dose group 20): 11500 µL⁻¹
Others Het/Poly ([1]; Day 28, dose group 1): 56.33%
Red Blood Cells HCT ([1]; Day 28, dose group 1): 33.00%
White Blood Cells BASO ([1]; Day 28, dose group 1): 260.00 X/uL
White Blood Cells EOS ([1]; Day 28, dose group 1): 0.00 X/uL
White Blood Cells LYMP + MONO ([1]; Day 28, dose group 1): 2300.00 X/uL
White Blood Cells NEUT ([1]; Day 28, dose group 1): 4106.67 X/uL
White Blood Cells WBC ([1]; Day 28, dose group 1): 6670 µL⁻¹
Others Het/Poly ([1]; Day 28, dose group 3): 59.00%
Red Blood Cells HCT ([1]; Day 28, dose group 3): 29.67%
White Blood Cells BASO ([1]; Day 28, dose group 3): 450.00 X/uL
White Blood Cells EOS ([1]; Day 28, dose group 3): 0.00 X/uL
White Blood Cells LYMP + MONO ([1]; Day 28, dose group 3): 3216.67 X/uL
White Blood Cells NEUT ([1]; Day 28, dose group 3): 5000.00 X/uL
White Blood Cells WBC ([1]; Day 28, dose group 3): 8670 µL⁻¹
Others Het/Poly ([1]; Day 28, dose group 20): 44.00%
Red Blood Cells HCT ([1]; Day 28, dose group 20): 27.33%
White Blood Cells BASO ([1]; Day 28, dose group 20): 393.33 X/uL
White Blood Cells EOS ([1]; Day 28, dose group 20): 0.00 X/uL
White Blood Cells LYMP + MONO ([1]; Day 28, dose group 20): 3386.67 X/uL
White Blood Cells NEUT ([1]; Day 28, dose group 20): 3553.33 X/uL
White Blood Cells WBC ([1]; Day 28, dose group 20): 7330 µL⁻¹
Others Het/Poly ([1]; Day 35, dose group 1): 33.00%
Red Blood Cells HCT ([1]; Day 35, dose group 1): 29.67%
White Blood Cells BASO ([1]; Day 35, dose group 1): 386.67 X/uL
White Blood Cells EOS ([1]; Day 35, dose group 1): 0.00 X/uL
White Blood Cells LYMP + MONO ([1]; Day 35, dose group 1): 4026.67 X/uL
White Blood Cells NEUT ([1]; Day 35, dose group 1): 2253.33 X/uL
White Blood Cells WBC ([1]; Day 35, dose group 1): 6670 µL⁻¹
Others Het/Poly ([1]; Day 35, dose group 3): 31.00%
Red Blood Cells HCT ([1]; Day 35, dose group 3): 29.00%
White Blood Cells BASO ([1]; Day 35, dose group 3): 423.33 X/uL
White Blood Cells EOS ([1]; Day 35, dose group 3): 0.00 X/uL
White Blood Cells LYMP + MONO ([1]; Day 35, dose group 3): 4366.67 X/uL
White Blood Cells NEUT ([1]; Day 35, dose group 3): 2210.00 X/uL
White Blood Cells WBC ([1]; Day 35, dose group 3): 7000 µL⁻¹
Others Het/Poly ([1]; Day 35, dose group 20): 34.67%
Red Blood Cells HCT ([1]; Day 35, dose group 20): 25.50%
White Blood Cells BASO ([1]; Day 35, dose group 20): 393.33 X/uL
White Blood Cells EOS ([1]; Day 35, dose group 20): 0.00 X/uL
White Blood Cells LYMP + MONO ([1]; Day 35, dose group 20): 4323.33 X/uL
White Blood Cells NEUT ([1]; Day 35, dose group 20): 2283.33 X/uL
White Blood Cells WBC ([1]; Day 35, dose group 20): 7000 µL⁻¹
Others Het/Poly ([1]; Day 42, dose group 1): 31.33%
Red Blood Cells HCT ([1]; Day 42, dose group 1): 30.33%
White Blood Cells BASO ([1]; Day 42, dose group 1): 450.00 X/uL
White Blood Cells EOS ([1]; Day 42, dose group 1): 0.00 X/uL
White Blood Cells LYMP + MONO ([1]; Day 42, dose group 1): 6200.00 X/uL
White Blood Cells NEUT ([1]; Day 42, dose group 1): 3016.67 X/uL
White Blood Cells WBC ([1]; Day 42, dose group 1): 9670 µL⁻¹
Others Het/Poly ([1]; Day 42, dose group 3): 34.67%
Red Blood Cells HCT ([1]; Day 42, dose group 3): 29.33%
White Blood Cells BASO ([1]; Day 42, dose group 3): 466.67 X/uL
White Blood Cells EOS ([1]; Day 42, dose group 3): 0.00 X/uL
White Blood Cells LYMP + MONO ([1]; Day 42, dose group 3): 5760.00 X/uL
White Blood Cells NEUT ([1]; Day 42, dose group 3): 3106.67 X/uL
White Blood Cells WBC ([1]; Day 42, dose group 3): 9330 µL⁻¹
Others Het/Poly ([1]; Day 42, dose group 20): 35.00%
Red Blood Cells HCT ([1]; Day 42, dose group 20): 28.67%
White Blood Cells BASO ([1]; Day 42, dose group 20): 406.67 X/uL
White Blood Cells EOS ([1]; Day 42, dose group 20): 0.00 X/uL
White Blood Cells LYMP + MONO ([1]; Day 42, dose group 20): 4980.00 X/uL
White Blood Cells NEUT ([1]; Day 42, dose group 20): 3013.33 X/uL
White Blood Cells WBC ([1]; Day 42, dose group 20): 8670 µL⁻¹
Others Het/Poly ([1]; Day 49, dose group 1): 27.33%
Red Blood Cells HCT ([1]; Day 49, dose group 1): 29.00%
White Blood Cells BASO ([1]; Day 49, dose group 1): 213.33 X/uL
White Blood Cells EOS ([1]; Day 49, dose group 1): 40.00 X/uL
White Blood Cells LYMP + MONO ([1]; Day 49, dose group 1): 5766.67 X/uL
White Blood Cells NEUT ([1]; Day 49, dose group 1): 2646.67 X/uL
White Blood Cells WBC ([1]; Day 49, dose group 1): 8670 µL⁻¹
Others Het/Poly ([1]; Day 49, dose group 3): 34.33%
Red Blood Cells HCT ([1]; Day 49, dose group 3): 30.67%
White Blood Cells BASO ([1]; Day 49, dose group 3): 243.33 X/uL
White Blood Cells EOS ([1]; Day 49, dose group 3): 0.00 X/uL
White Blood Cells LYMP + MONO ([1]; Day 49, dose group 3): 5510.00 X/uL
White Blood Cells NEUT ([1]; Day 49, dose group 3): 2913.33 X/uL
White Blood Cells WBC ([1]; Day 49, dose group 3): 8670 µL⁻¹
Others Het/Poly ([1]; Day 49, dose group 20): 43.33%
Red Blood Cells HCT ([1]; Day 49, dose group 20): 30.33%
White Blood Cells BASO ([1]; Day 49, dose group 20): 296.67 X/uL
White Blood Cells EOS ([1]; Day 49, dose group 20): 0.00 X/uL
White Blood Cells LYMP + MONO ([1]; Day 49, dose group 20): 4483.33 X/uL
White Blood Cells NEUT ([1]; Day 49, dose group 20): 3553.33 X/uL
White Blood Cells WBC ([1]; Day 49, dose group 20): 8330 µL⁻¹
Substance: Candida utilis phosphoglucomannan-soy bean proteins [CUPS]

Reference: US20070036839A1, “Phosphorylated glucomannane polysaccharides containing 1-6 and 1-2 linkages increase weight gain in poultry” (priority 2005, published 2007)
